In patent US20260262643A1, “HERBICIDAL BENZOXAZINES” (FMC CORPORATION, priority 2022, published 2026):

Experiments:
barnyardgrass [1] = assay: Test A postemergence; assay type: in vivo, Echinochloa crusgalli; conditions: 1000 g ai/ha, Postemergence; 0 to 100 scale
How it was run: (§1)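 Plants were grown in loam and sand and treated preemergence or postemergence (one- to two-leaf stage, 2–10 cm) with compound in solvent plus surfactant. Response was scored against untreated controls after 10 greenhouse days, where 0 means no effect and 100 complete control.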

barnyardgrass [2] = assay: Test B flooded paddy test; assay type: in vivo, Echinochloa crus-galli; conditions: 250 g ai/ha, Flood, 13 days, 0 to 100 scale (0 no effect, 100 complete control)
How it was run: (§2)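 Each species was raised to the 2-leaf stage. At treatment, each pot received floodwater 3 cm deep, with the chemical delivered into the water. Greenhouse holding followed for 13 days, then percent control was estimated visually versus untreated pots.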

blackgrass = assay: Test A postemergence; assay type: in vivo, Alopecurus myosuroides; conditions: 1000 g ai/ha, Postemergence; 0 to 100 scale
How it was run: as §1

galium = assay: Test A postemergence; assay type: in vivo, Galium aparine; conditions: 1000 g ai/ha, Postemergence; 0 to 100 scale
How it was run: as §1

ragweed [3] = assay: Test A postemergence; assay type: in vivo, Ambrosia artemisiifolia; conditions: 1000 g ai/ha, Postemergence; 0 to 100 scale
How it was run: as §1

Pigweed, Redroot [4] = assay: Test A postemergence; assay type: in vivo, Amaranthus retroflexus; conditions: 1000 g ai/ha, Postemergence; 0 to 100 scale
How it was run: as §1

ryegrass, Italian [5] = assay: Test A postemergence; assay type: in vivo, Lolium multiflorum; conditions: 1000 g ai/ha, Postemergence; 0 to 100 scale
How it was run: as §1

rice = assay: Test B flooded paddy test; assay type: in vivo, Oryza sativa; conditions: 250 g ai/ha, Flood, 13 days, 0 to 100 scale (0 no effect, 100 complete control)
How it was run: as §2

barnyardgrass [6] = assay: Test A preemergence; assay type: in vivo, Echinochloa crusgalli; conditions: 1000 g ai/ha, 0 to 100 scale (0 no effect, 100 complete control), 10 days
How it was run: as §1

corn = assay: Test A postemergence; assay type: in vivo, Zea mays; conditions: 1000 g ai/ha, Postemergence; 0 to 100 scale
How it was run: as §1

kochia [7] = assay: Test A preemergence; assay type: in vivo, Bassia scoparia; conditions: 1000 g ai/ha, 0 to 100 scale (0 no effect, 100 complete control), 10 days
How it was run: as §1

ducksalad = assay: Test B flooded paddy test; assay type: in vivo, Heteranthera limosa; conditions: 250 g ai/ha, Flood, 13 days, 0 to 100 scale (0 no effect, 100 complete control)
How it was run: as §2

Pigweed, Redroot [8] = assay: Test A preemergence; assay type: in vivo, Amaranthus retroflexus; conditions: 1000 g ai/ha, 0 to 100 scale (0 no effect, 100 complete control), 10 days
How it was run: as §1

ryegrass, Italian [9] = assay: Test A preemergence; assay type: in vivo, Lolium multiflorum; conditions: 1000 g ai/ha, 0 to 100 scale (0 no effect, 100 complete control), 10 days
How it was run: as §1

sedge, umbrella = assay: Test B flooded paddy test; assay type: in vivo, Cyperus difformis; conditions: 250 g ai/ha, Flood, 13 days, 0 to 100 scale (0 no effect, 100 complete control)
How it was run: as §2

ragweed [10] = assay: Test A preemergence; assay type: in vivo, Ambrosia artemisiifolia; conditions: 1000 g ai/ha, 0 to 100 scale (0 no effect, 100 complete control), 10 days
How it was run: as §1

wheat = assay: Test A postemergence; assay type: in vivo, Triticum aestivum; conditions: 1000 g ai/ha, Postemergence; 0 to 100 scale
How it was run: as §1

foxtail, giant [11] = assay: Test A postemergence; assay type: in vivo, Setaria faberi; conditions: 1000 g ai/ha, Postemergence; 0 to 100 scale
How it was run: as §1

foxtail, giant [12] = assay: Test A preemergence; assay type: in vivo, Setaria faberi; conditions: 1000 g ai/ha, 0 to 100 scale (0 no effect, 100 complete control), 10 days
How it was run: as §1

kochia [13] = assay: Test A postemergence; assay type: in vivo, Bassia scoparia; conditions: 1000 g ai/ha, Postemergence; 0 to 100 scale
How it was run: as §1

Cc1cccc2c1OC(C)CN2C(=O)c1cccc(-n2cncn2)c1 (centres unmarked) [Compound 21]
Plant response rating, Barnyardgrass (barnyardgrass [1]): 90
Plant response rating, Barnyardgrass (barnyardgrass [2]): 0
Plant response rating, Blackgrass (blackgrass): 80
Plant response rating, Galium (galium): 80
Plant response rating, Ragweed (ragweed [3]): 40
Plant response rating, Pigweed, Redroot (Pigweed, Redroot [4]): 60
Plant response rating, Ryegrass, Italian (ryegrass, Italian [5]): 80
Plant response rating, Rice (rice): 0
Plant response rating, Barnyardgrass (barnyardgrass [6]): 100
Plant response rating, Corn (corn): 90
Plant response rating, Kochia (kochia [7]): 70
Plant response rating, Ducksalad (ducksalad): 65
Plant response rating, Pigweed, Redroot (Pigweed, Redroot [8]): 100
Plant response rating, Ryegrass, Italian (ryegrass, Italian [9]): 100
Plant response rating, Sedge, Umbrella (sedge, umbrella): 35
Plant response rating, Ragweed (ragweed [10]): 70
Plant response rating, Wheat (wheat): 70
Plant response rating, Foxtail, Giant (foxtail, giant [11]): 90
Plant response rating, Foxtail, Giant (foxtail, giant [12]): 100
Plant response rating, Kochia (kochia [13]): 40
